pIC50: −log10 of the molar value. “And” between values parts separate entries of the source, which are not always exact repeats. Equal values may be shown once. Where a name gives a salt, the structure may show the parent alone. Read-outs that look alike come from different tables or passages of the source.
What was measured:
[1] = test system: p34^cdc2-cyclin B kinases; details: Havlicek et al. 1997; cited from earlier work
[2] = biological target: T1, cdk2/cyclin E (Homo sapiens, UniProt P24941); test: Cyclin-Dependent Kinase 2 Assay (cdk-2 inhibition); assay type: biochemical; details: GST-Rb substrate, 30 min at 30° C.
T1 construct: made in house; host or cells: insect cells (baculovirus co-infection)
Outline: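 GST-Rb bound to glutathione-Sepharose beads (0.5 μg/well) as substrate in 50 mM HEPES pH 7.5, 10 mM MgCl2, 1 mM EGTA. Recombinant cdk2/cyclin E at 0.1 μg per 100 μl, 30 min at 30 °C. Reaction stopped by filtration, TNEN washes, scintillation counting.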

[3] = biological target: T2, cdk4/cyclin D1 (Homo sapiens, UniProt P11802); test: Cyclin-dependent kinase 4 Assay; assay type: biochemical; details: cdk4/cyclin D1, GST-Rb substrate, 10 μM ATP, 30 min at 37° C.; read-out: CDK4 Inhibition IC50
T2 construct: made in house; host or cells: Sf9 insect cells (Bac-to-Bac baculovirus, pFastBac)
T2 sequence (P11802 whole entry): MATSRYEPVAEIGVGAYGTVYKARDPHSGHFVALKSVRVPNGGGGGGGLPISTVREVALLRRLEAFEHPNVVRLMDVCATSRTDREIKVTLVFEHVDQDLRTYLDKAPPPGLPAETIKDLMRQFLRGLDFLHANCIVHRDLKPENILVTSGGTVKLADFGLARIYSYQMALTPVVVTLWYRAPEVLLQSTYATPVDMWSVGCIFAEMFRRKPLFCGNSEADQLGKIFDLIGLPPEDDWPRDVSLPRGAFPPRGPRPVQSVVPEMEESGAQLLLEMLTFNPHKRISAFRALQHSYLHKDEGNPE
T2 sequence (P24385 whole entry partner): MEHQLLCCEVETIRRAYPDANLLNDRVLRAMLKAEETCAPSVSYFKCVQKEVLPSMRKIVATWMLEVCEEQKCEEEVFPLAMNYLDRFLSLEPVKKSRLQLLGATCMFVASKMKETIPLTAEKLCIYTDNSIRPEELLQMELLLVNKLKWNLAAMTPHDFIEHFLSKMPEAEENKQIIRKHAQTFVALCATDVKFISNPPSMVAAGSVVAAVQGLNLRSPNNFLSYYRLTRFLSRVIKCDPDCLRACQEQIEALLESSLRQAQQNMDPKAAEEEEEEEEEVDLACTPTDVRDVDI
Outline: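 Insect-cell lysate of coexpressed human cdk4/cyclin D1 (0.1 μg) phosphorylated bead-bound GST-Rb (0.5 μg) in 50 mM HEPES pH 7.5, 10 mM MgCl2, 1 mM EGTA for 30 min at 37 °C. Filters were washed with TNEN and scintillation-counted; IC50 values derived.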

[4] = test system: MCF-7; test: In vitro tumor cell proliferation, MCF-7; assay type: cell-based, human; details: read-out: In vitro Tumor Cell Proliferation (IC50, μM) Breast MCF-7
Protocol: (§1) The proliferation of tumor cells was measured using a sulforhodamine B assay as described in Skehan, P., et al., J. Natl. Cancer Inst. […] Tumor cells were harvested with trypsin-EDTA, cells that excluded trypan blue were counted, added to 96-well plates and incubated overnight at 37° C. Drug was added to the wells following dilution in culture medium. Three days later, the medium was removed and replenished with medium containing fresh drug and incubated an additional 4 days. The cells were then fixed with 0.1 ml 10% trichloroacetic acid for 60 min at 4° C. The plates were rinsed five times with tap water, air-dried and stained for 30 min with 0.4% sulforhodamine B in 1% acetic acid and air-dried.
(§2) Alternatively, the CyQUANT cell proliferation assay was used to quantify tumor cell proliferation. Tumor cells were harvested with trypsin-EDTA, cells that excluded trypan blue were counted, added to 96-well plates and incubated overnight at 37° C. Drug was added to the wells following dilution in culture medium. Three days later the medium was removed and the plates frozen at −80° C. for at least 30 minutes.
MCF7 is a human breast adenocarcinoma, hormone-dependent (HTB 22);

[5] = test system: MDA-MB-231; test: In vitro tumor cell proliferation, MDA-MB-231; assay type: cell-based, human; details: read-out: In vitro Tumor Cell Proliferation (IC50, μM) Breast MDA-MB-231
Outline: (§3)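 SRB read-out: 3-day drug exposure, medium and drug renewed, 4 further days, TCA fixation at 4° C, 0.4% SRB stain. CyQUANT alternative: 3-day drug exposure, then plates frozen at −80° C ≥30 min. Cells plated overnight at 37° C before dosing.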

[6] = test system: HT-29; test: In vitro tumor cell proliferation, HT-29; assay type: cell-based, human; details: read-out: In vitro Tumor Cell Proliferation (IC50, μM) Colon HT-29 (converted)
Outline: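 HT-29 human colon adenocarcinoma cells plated overnight at 37° C., then exposed to drug for 3 days, medium with fresh drug replaced for a further 4 days. Cells fixed with 10% TCA and stained with 0.4% sulforhodamine B; alternatively, CyQUANT read after 3 days of drug exposure.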

[7] = test system: HCT-15; test: In vitro tumor cell proliferation, HCT-15; assay type: cell-based, human; details: read-out: In vitro Tumor Cell Proliferation (IC50, μM) Colon HCT-15
Protocol: as §1, §2

[8] = test system: A549; test: In vitro tumor cell proliferation, A549; assay type: cell-based, human; details: read-out: In vitro Tumor Cell Proliferation (IC50, μM) Lung A549
Outline: as §3

[9] = test system: DMS-114; test: In vitro tumor cell proliferation, DMS-114; assay type: cell-based, human; details: read-out: In vitro Tumor Cell Proliferation (IC50, μM) Lung DMS-114
Outline: as §3

[10] = test system: PC-3; test: In vitro tumor cell proliferation, PC-3; assay type: cell-based, human; details: read-out: In vitro Tumor Cell Proliferation (IC50, μM) Prostate PC-3
Outline: as §3

[11] = test system: DU 145; test: In vitro tumor cell proliferation, DU 145; assay type: cell-based, human; details: read-out: In vitro Tumor Cell Proliferation (IC50, μM) Prostate DUI45
Outline: as §3

[12] = test system: neuronal PC12 cells and sympathetic neurons; details: cited from earlier work
[13] = test system: PC12 cells, or rat sympathetic neurons; details: cited from earlier work
[14] = test system: cortical neurons; details: cited from earlier work
[15] = test system: proliferating PC12 cells; details: cited from earlier work
[16] = Homo sapiens, MCF7, values without *
[17] = values without *, trihydrochloride
[18] = Homo sapiens, MDA-MB-231, values without *
[19] = Homo sapiens, HT-29, values without *
[20] = Homo sapiens, HCT-15, values without *
[21] = Homo sapiens, A549, values without *
[22] = Homo sapiens, DMS-114, values without *
[23] = Homo sapiens, PC-3, values without *
[24] = Homo sapiens, DU-145, values without *
[25] = values without *, dihydrochloride

Row | Compound | pIC50 [2] | pIC50 [3] | IC50 [4, 16] | IC50 [5, 18] | IC50 [6, 19] | IC50 [7, 20] | IC50 [8, 21] | IC50 [9, 22] | IC50 [10, 23] | IC50 [11, 24] | other results
1 | CC[C@@H](CO)Nc1nc(NCc2ccccc2)c2ncn(C(C)C)c2n1 (single isomer, unassigned) [(S) enantiomer] |  |  |  |  |  |  |  |  |  |  | pIC50 [1]: 6.10
2 | CN1CC[C@H](c2c(O)cc(O)c3c(=O)cc(-c4ccccc4Cl)oc23)[C@H](O)C1 [Flavoipiridol, reference compound] |  |  | 0.06 µM | 0.095 µM |  | 0.1 µM | 0.08 µM | 0.08 µM | 0.07 µM | 0.08 µM | apoptosis of post-mitotic differentiated or sympathetic neurons ([12]; following withdrawal of NGF): prevented apoptosis; death of neuronal PC12 cells and sympathetic neurons ([12]; two model systems of neuronal survival, Park et al. 1996): suppress the death; cell death at day 6 ([13]; both or individual olomoucine or flavopiridol, in the presence or absence of camptothecin): approximately 30%; concentration giving maximal protection from death ([13]; camptothecin-treated PC12 cells or rat sympathetic neurons): 1 µM; pIC50 ([14]; Park et al. 1997, read-out: IC50, protection against camptothecin-induced cortical neuronal death): 7.00; minimum concentration that fully inhibits DNA synthesis [15]: 1 µM
3 | Cn1cnc2nc(NCCO)nc(NCc3ccccc3)c21 [iso-olomoucine] |  |  |  |  |  |  |  |  |  |  | prevention of cell death of camptothecin-treated neuronal cells ([13]; PC12 cells / sympathetic neurons): failed to prevent the cell death; prevention of cell death of camptothecin-treated neuronal cells ([14]; cortical neurons): failed to prevent the cell death

The next lines start with results.

Row | pIC50 [2] | pIC50 [3] | IC50 [4, 16] | IC50 [5, 18] | IC50 [6, 19] | IC50 [7, 20] | IC50 [8, 21] | IC50 [9, 22] | IC50 [10, 23] | IC50 [11, 24] | Compound | other results
4 | 6.74 | 4.92 | 1.6 µM | 4 µM | 4.8 µM | 16 µM | 2 µM | 2.1 µM | 2.4 µM | 2.5 µM | CC(C)n1cnc2c(NCc3ccccc3)nc(N[C@H]3CC[C@H](N)CC3)nc21 [Example 45, 2-[Trans-(4-aminocyclohexyl)amino]-6-(benzylamino)-9-(2-propyl)purine trihydrochloride] | IC50 [4, 17]: 1.7 µM; IC50 [5, 17]: 3 µM; IC50 [6, 17]: 3.5 µM; IC50 [7, 17]: 17 µM; IC50 [8, 17]: 1.8 µM; IC50 [9, 17]: 1.6 µM; IC50 [10, 17]: 1.4 µM; IC50 [11, 17]: 1.9 µM
5 | 7.70 and 7.77 and 7.68 | 6.35 | 3.5 µM | 5.2 µM | 6.2 µM |  | 6 µM | 5.4 µM | 2 µM | 5.1 µM | N[C@H]1CC[C@H](Nc2nc(NCCCn3ccnc3)c3ncn(C4CCCC4)c3n2)CC1 [Example 46, 2-[Trans-(4-aminocyclohexyl)amino]-6-[3-(1-imidazolyl)propylamino]-9-cyclopentylpurine dihydrochloride] | IC50 [4, 25]: 4.9 µM; IC50 [5, 25]: 7 µM; IC50 [6, 25]: 9.7 µM; IC50 [7, 25]: 16 µM; IC50 [8, 25]: 6.7 µM; IC50 [9, 25]: 7.4 µM; IC50 [10, 25]: 3 µM; IC50 [11, 25]: 6 µM

Source: patent US6413974B1, “6,9,-disubstituted 2-[trans-(4-aminocyclohexyl) amino] purines” (Aventis Pharmaceuticals Inc., priority 1998, dated 2002)
